Source: the supplement of paper PMC10307832

Experiments:
Assay in all cases: relative viability (nuclei count vs DMSO), 5 days (fraction); higher = more cells survive
[1] = compound: CO[C@H]1C[C@@H]2CC[C@@H](C)[C@@](O)(O2)C(=O)C(=O)N2CCCC[C@H]2C(=O)O[C@H]([C@H](C)C[C@@H]2CC[C@@H](OCCO)[C@H](OC)C2)CC(=O)[C@H](C)/C=C(\C)[C@@H](O)[C@@H](OC)C(=O)[C@H](C)C[C@H](C)/C=C/C=C/C=C/1C [Everolimus] + CS(=O)(=O)N1CCN(Cc2cc3nc(-c4cccc5[nH]ncc45)nc(N4CCOCC4)c3s2)CC1 [Pictilisib] (partner 1 µM)
Outline: (§1)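 Five library-drug doses in √10 steps were combined with a fixed anchor-drug dose, or a single drug was given alone, by pin tool to lung cancer cell lines in 1536-well plates the day after seeding. Nuclei were stained and counted after 5 days. Relative viability is the nuclei count in treated wells over that in vehicle wells, taken as the median of duplicate plates.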

[2] = compound: CO[C@H]1C[C@@H]2CC[C@@H](C)[C@@](O)(O2)C(=O)C(=O)N2CCCC[C@H]2C(=O)O[C@H]([C@H](C)C[C@@H]2CC[C@@H](OCCO)[C@H](OC)C2)CC(=O)[C@H](C)/C=C(\C)[C@@H](O)[C@@H](OC)C(=O)[C@H](C)C[C@H](C)/C=C/C=C/C=C/1C [Everolimus] + Cc1nc(NC(=O)N2CCC[C@H]2C(N)=O)sc1-c1ccnc(C(C)(C)C(F)(F)F)c1 [Alpelisib] (partner 2 µM)
Outline: as §1

[3] = compound: CO[C@H]1C[C@@H]2CC[C@@H](C)[C@@](O)(O2)C(=O)C(=O)N2CCCC[C@H]2C(=O)O[C@H]([C@H](C)C[C@@H]2CC[C@@H](OCCO)[C@H](OC)C2)CC(=O)[C@H](C)/C=C(\C)[C@@H](O)[C@@H](OC)C(=O)[C@H](C)C[C@H](C)/C=C/C=C/C=C/1C [Everolimus] + N=C(N)NC(=N)NCCc1ccccc1 [Phenformin] (partner 250 µM)
Outline: as §1

[4] = compound: CO[C@H]1C[C@@H]2CC[C@@H](C)[C@@](O)(O2)C(=O)C(=O)N2CCCC[C@H]2C(=O)O[C@H]([C@H](C)C[C@@H]2CC[C@@H](OCCO)[C@H](OC)C2)CC(=O)[C@H](C)/C=C(\C)[C@@H](O)[C@@H](OC)C(=O)[C@H](C)C[C@H](C)/C=C/C=C/C=C/1C [Everolimus] + NC(=O)Nc1cc(-c2cccc(F)c2)sc1C(=O)N[C@H]1CCCNC1 [AZD7762] (partner 0.2 µM)
Outline: as §1

Row | Cell Line | relative viability ([1]; first compound 0.01 µM) | relative viability ([1]; first compound 0.03162 µM) | relative viability ([1]; first compound 0.1 µM) | relative viability ([1]; first compound 0.3162 µM) | relative viability ([1]; first compound 1 µM) | relative viability ([2]; first compound 0.01 µM) | relative viability ([2]; first compound 0.03162 µM) | relative viability ([2]; first compound 0.1 µM) | relative viability ([2]; first compound 0.3162 µM) | relative viability ([2]; first compound 1 µM) | relative viability ([3]; first compound 0.01 µM) | relative viability ([3]; first compound 0.03162 µM) | relative viability ([3]; first compound 0.1 µM) | relative viability ([3]; first compound 0.3162 µM) | relative viability ([3]; first compound 1 µM) | relative viability ([4]; first compound 0.01 µM) | relative viability ([4]; first compound 0.03162 µM) | relative viability ([4]; first compound 0.1 µM) | relative viability ([4]; first compound 0.3162 µM) | relative viability ([4]; first compound 1 µM)
1 | NCI-H1734 | 0.285 | 0.341 | 0.259 | 0.316 | 0.336 | 0.449 | 0.398 | 0.466 | 0.399 | 0.463 | 0.306 | 0.324 | 0.249 | 0.31 | 0.35 | 0.336 | 0.365 | 0.291 | 0.283 | 0.313
2 | NCI-H1755 | 0.334 | 0.381 | 0.292 | 0.354 | 0.329 | 0.646 | 0.659 | 0.653 | 0.643 | 0.611 | 0.583 | 0.639 | 0.476 | 0.547 | 0.487 | 0.379 | 0.39 | 0.382 | 0.344 | 0.345
3 | NCI-H1792 | 0.189 | 0.14 | 0.121 | 0.148 | 0.105 | 0.618 | 0.5 | 0.312 | 0.222 | 0.212 | 0.154 | 0.129 | 0.162 | 0.129 | 0.0809 | 0.312 | 0.312 | 0.304 | 0.185 | 0.262
4 | NCI-H1793 | 0.225 | 0.222 | 0.141 | 0.237 | 0.19 | 0.314 | 0.225 | 0.298 | 0.23 | 0.267 | 0.294 | 0.242 | 0.329 | 0.313 | 0.29 | 0.242 | 0.244 | 0.259 | 0.21 | 0.197
5 | NCI-H1915 | 0.622 | 0.33 | 0.493 | 0.625 | 0.555 | 0.806 | 0.833 | 0.784 | 0.732 | 0.723 | 0.384 | 0.372 | 0.34 | 0.349 | 0.432 | 0.632 | 0.567 | 0.561 | 0.587 | 0.554
6 | NCI-H1944 | 0.315 | 0.314 | 0.248 | 0.31 | 0.284 | 0.592 | 0.565 | 0.593 | 0.564 | 0.562 | 0.183 | 0.19 | 0.165 | 0.208 | 0.222 | 0.341 | 0.437 | 0.354 | 0.325 | 0.306
7 | NCI-H1975 | 0.223 | 0.242 | 0.194 | 0.211 | 0.199 | 0.494 | 0.454 | 0.456 | 0.376 | 0.339 | 0.378 | 0.383 | 0.387 | 0.367 | 0.323 | 0.591 | 0.571 | 0.533 | 0.433 | 0.531
8 | NCI-H1993 | 0.793 | 0.739 | 0.715 | 0.786 | 0.86 | 0.674 | 0.654 | 0.602 | 0.627 | 0.672 | 0.525 | 0.498 | 0.533 | 0.468 | 0.454 | 0.461 | 0.505 | 0.371 | 0.472 | 0.439
9 | NCI-H2085 | 0.346 | 0.358 | 0.368 | 0.348 | 0.377 | 0.668 | 0.616 | 0.577 | 0.622 | 0.571 | 0.573 | 0.559 | 0.395 | 0.503 | 0.521 | 0.808 | 0.753 | 0.45 | 0.654 | 0.481
10 | NCI-H2087 | 0.502 | 0.595 | 0.48 | 0.722 | 0.591 | 0.796 | 0.897 | 0.839 | 0.663 | 0.657 | 0.41 | 0.317 | 0.423 | 0.351 | 0.41 | 1.25 | 1.51 | 1.2 | 1.36 | 1.35
11 | NCI-H2126 | 0.373 | 0.34 | 0.359 | 0.392 | 0.409 | 0.509 | 0.466 | 0.435 | 0.473 | 0.458 | 0.485 | 0.45 | 0.41 | 0.48 | 0.455 | 0.688 | 0.598 | 0.629 | 0.688 | 0.703
12 | NCI-H2170 | 0.229 | 0.234 | 0.159 | 0.214 | 0.198 | 0.365 | 0.367 | 0.333 | 0.312 | 0.354 | 0.388 | 0.402 | 0.387 | 0.403 | 0.414 | 0.367 | 0.403 | 0.334 | 0.374 | 0.401
13 | NCI-H2347 | 0.288 | 0.281 | 0.4 | 0.368 | 0.358 | 0.979 | 0.872 | 0.564 | 0.783 | 0.826 | 0.388 | 0.353 | 0.351 | 0.384 | 0.26 | 0.651 | 0.618 | 0.576 | 0.622 | 0.439
14 | NCI-H2405 | 0.265 | 0.291 | 0.294 | 0.294 | 0.275 | 0.452 | 0.475 | 0.372 | 0.444 | 0.469 | 0.364 | 0.353 | 0.33 | 0.335 | 0.382 | 0.655 | 0.652 | 0.657 | 0.637 | 0.662
15 | NCI-H3122 | 0.364 | 0.421 | 0.288 | 0.372 | 0.348 | 0.587 | 0.549 | 0.325 | 0.59 | 0.363 | 0.368 | 0.45 | 0.391 | 0.37 | 0.402 | 0.75 | 0.765 | 0.711 | 0.629 | 0.725
16 | PC-3 [JPC-3] | 0.581 | 0.585 | 0.516 | 0.622 | 0.53 | 0.881 | 0.828 | 0.793 | 0.789 | 0.747 | 0.454 | 0.461 | 0.408 | 0.461 | 0.463 | 0.58 | 0.499 | 0.615 |  | 0.647
17 | PC-14 | 0.411 | 0.191 | 0.239 | 0.21 | 0.342 | 0.796 | 0.661 | 0.62 | 0.589 | 0.476 | 0.443 | 0.369 | 0.459 | 0.32 | 0.488 | 0.201 | 0.204 | 0.171 | 0.145 | 0.163
18 | RERF-LC-KJ | 0.345 | 0.445 | 0.214 | 0.409 | 0.238 | 0.632 | 0.463 | 0.408 | 0.481 | 0.53 | 0.377 | 0.426 | 0.377 | 0.381 | 0.376 | 0.566 | 0.415 | 0.462 | 0.507 | 0.598
